{"source": "patent US6551582B2", "about": "“Deodorant composition” (Sumitomo Chemical Company, Limited, priority 2001, dated 2003)", "test": "Test Example 1: deodorant effect of sprayed liquid formulations against ammonia gas in a flask", "settings": "after 30 minutes, about 20° C.", "experimental": "Into a glass Erlenmeyer flask (1L-volume), 1 mL of 1.8% aqueous solution of ammonia was placed at room temperature (about 20° C.). After the flask was sealed with a rubber stopper and shaken to be filled with ammonia gas, the concentration of ammonia was measured with a gas detector tube (No. 3HM, Gastec Corporation).\nNext, 1 mL of each formulation obtained in Production example 1 was sprayed into the flask. The concentration of ammonia was measured with a gas detector tube (No. 3HM, Gastec Corporation) after 30 minutes. A control solution (1 mL) of a mixed solvent without the present deodorant compound was added into an Erlenmeyer flask (1 L-volume) containing ammonia gas, and then the […] of ammonia was measured with the same method after 30 minutes.\nDehydroacetic acid was formulated in the same manner as Production example 1, and then comparative test was carried out by the same method.\nThe formulations obtained in Production example 2 and 3 were provided to the same test.\nDeodorant rates were calculated by formula 1. [formula]", "data": [{"substance": "dehydroacetic acid", "values": [{"measurement": "Deodorant rate (%) Production example 1", "setting": "1 mL formulation of Production example 1 (5 parts compound, 80 parts ethanol, 15 parts water) sprayed", "value": 20, "unit": "%"}, {"measurement": "Deodorant rate (%) Production example 2", "setting": "1 mL formulation of Production example 2 (5 parts compound, 80 parts isopropyl alcohol, 15 parts water) sprayed", "value": 25, "unit": "%"}, {"measurement": "Deodorant rate (%) Production example 3", "setting": "1 mL formulation of Production example 3 (5 parts compound, 80 parts glycerin, 15 parts water) sprayed", "value": 25, "unit": "%"}]}]}
